Results published in patent US20240174617A1, “FPR2 (FORMYL PEPTIDE RECEPTOR 2)RECEPTOR AGONISTS AND THEIR USE IN THE TREATMENT OF THE AUTISM SPECTRUM DISORDER” (UNIVERSITA' DEGLI STUDI DI BARI ALDO MORO, priority 2021, published 2024).

Key:
Assay type in all cases: cell-based
[1] = system: mouse microglial N9 cells; experiment: cell viability (LDH assay) in microglial N9 cells; details: for LDH release activity (cytotoxic effect): basal conditions, 0.5-5 μM, 24 hours (FIG. 4); for cell mortality (LDH release), neuroprotective effect: pre-incubation 0.5-5 μM, then LPS (100 ng/mL) for 24 hours (FIG. 4)
Description: Study of the effect of compounds (S)-4, (S)-5, (S)-7, (R)-8, (S)-8, (S)-9, (S)-12, (S)-15 and (S)-16 on the cell viability (LDH assay) in cultures of mouse microglial N9 cells.
The neuroprotective activity of the compounds (S)-4, (S)-5, (S)-7, (R)-8, (S)-8, (S)-9, (S)-12, (S)-15 and (S)-16 was assessed by determining its effect on the cell viability both under basal conditions and following stimulation with bacterial lipopolysaccharide (LPS) toxin. The mouse microglial N9 cells were seeded in a 96-well plate (2x10^4 cells/well) by using RPMI supplemented with 1% fetal bovine serum (FBS) as culture medium. The cells were incubated for 24 hours with different concentrations of the selected compounds (0.5-5 μM) to assess the potential cytotoxic effect of the compounds. The control cells were treated with the carrier only. To quantify the cell mortality, the level of lactate dehydrogenase (LDH) release after 24 hours of treatment was determined. The supernatant of the cell cultures was taken and incubated for 20 minutes at room temperature with the appropriate mixture of reagents according to the instructions of the supplier of the assessment kit (Cytotoxicity Detection Kit, Roche, Germany). The LDH release activity was determined as conversion of lactate to pyruvate by a colorimetric test (X=490 nm, Infinite 200 PRO Detector, TECAN, Switzerland). The LDH release activity is proportional to the 25 number of damaged cells. […] Subsequently, the cells were pre-incubated with different concentrations of the selected compounds (0.5-5 μM) and then stimulated with LPS (100 ng/mL) for 24 hours. The control cells were treated with the carrier only. The cell viability at the end 30 of 24 hours was assessed as previously described.

[2] = system: IL-1β release in mouse microglial N9 cells; experiment: IL-1β release (ELISA) in microglial N9 cells
Description: (§1) The anti-inflammatory effect of the compounds (S)-4, (S)-7, (S)-8, (S)-9 and (S)-16 was determined by assessing its ability to affect the release of the pro-inflammatory cytokines IL-1β and TNF-α both in the cells under basal conditions and after stimulation with LPS. The mouse microglial N9 cells were seeded in a 96-well plate (2×10^4 cells/well) by using Iscove supplemented with 10% FBS as culture medium. The cells were then treated with different concentrations of the selected compounds (0.5-5 il.M) for 24 hours. The supernatant was then collected and the IL-1β and TNF-a levels were measured by using specific ELISA kits following the instructions of the supplier (R&D Systems, USA). […] Subsequently, the cells were pre-incubated with different concentrations of the selected compounds (0.5-5 μM) and then stimulated with LPS (100 ng/mL) for 24 hours. The control cells were treated with the carrier only. The IL-1β and TNF-α levels were determined as previously described. […] The specificity of the observed effect was assessed by co-incubating the cells with the FPR2 antagonist WRW4.

[3] = system: TNF-α release in mouse microglial N9 cells; experiment: TNF-α release (ELISA) in microglial N9 cells
Description: as §1

[4] = basal conditions, 0.5-5 μM, 24 hours (FIG. 5)
[5] = pre-incubation 0.5-5 μM, then LPS (100 ng/mL) for 24 hours (FIG. 5)
[6] = basal conditions, 0.5-5 μM, 24 hours (FIG. 6)
[7] = pre-incubation 0.5-5 μM, then LPS (100 ng/mL) for 24 hours (FIG. 6)

Row | Compound | LDH release activity (cytotoxic effect) [1] | cell mortality (LDH release), neuroprotective effect [1] | IL-1β release [2, 4] | IL-1β release [2, 5] | TNF-α release [3, 6] | TNF-α release [3, 7]
1 | N#Cc1ccc(C[C@H](NC(=O)Nc2ccc(F)cc2)C(=O)N2CCc3ccccc32)cc1 [(S)-7, (S)-1-(3-(4-Cyanophenyl)-1-(indolin-1-yl)-1-oxopropan-2-yl)-3-(4-fluorophenyl)urea] | do not increase the LDH release activity | reduce the cell mortality effect caused by the stimulation with LPS | do not cause increased release of the two cytokines | reduce the release of inflammatory cytokines | do not cause increased release of the two cytokines | reduce the release of inflammatory cytokines
2 | N#Cc1ccc(C[C@H](NC(=O)Nc2ccc(F)cc2)C(=O)N2CCc3ccc(F)cc32)cc1 [(S)-8, (S)-1-(3-(4-Cyanophenyl)-1-(6-fluoroindolin-1-yl)-1-oxopropan-2-yl)-3-(4-fluorophenyl)urea] | do not increase the LDH release activity | reduce the cell mortality effect caused by the stimulation with LPS | do not cause increased release of the two cytokines | reduce the release of inflammatory cytokines | do not cause increased release of the two cytokines | reduce the release of inflammatory cytokines
3 | N#Cc1ccc(C[C@H](NC(=O)Nc2ccc(F)cc2)C(=O)N2CCc3cc(F)ccc32)cc1 [(S)-9, (S)-1-(3-(4-Cyanophenyl)-1-(5-fluoroindolin-1-yl)-1-oxopropan-2-yl)-3-(4-fluorophenyl)urea] | do not increase the LDH release activity | reduce the cell mortality effect caused by the stimulation with LPS | do not cause increased release of the two cytokines | reduce the release of inflammatory cytokines | do not cause increased release of the two cytokines | reduce the release of inflammatory cytokines
4 | N#Cc1ccc(C[C@H](NC(=O)Nc2ccc(F)cc2)C(=O)NC2CCCCNC2=O)cc1 (stereo partly drawn) [(S)-4, (2S)-3-(4-Cyanophenyl)-2-(3-(4-fluorophenyl)ureido)-N-(2-oxoazepan-3-yl)propanamide] | do not increase the LDH release activity | reduce the cell mortality effect caused by the stimulation with LPS | do not cause increased release of the two cytokines | reduce the release of inflammatory cytokines | do not cause increased release of the two cytokines | reduce the release of inflammatory cytokines
